According to patent publication EP0726263A2, “Herbicidal (1,3,4)oxadiazoles and thiadiazoles” (American Cyanamid Company, priority 1995, dated 1996):

Experiments:
Assay type in all cases: in vivo
Papaver rhoeas [1] = experiment: Herbicidal activity, postemergence test; conditions: post; sprayed onto seedling plants, 800 g of active material per hectare; evaluated 2 weeks after treatment
Procedure, shortened: (§1)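 First, test compound in acetone containing 0.4% Triton X-155 is diluted with water. Next, it is sprayed at 800 g/ha (900 L/ha) onto freshly seeded loam (pre) or onto seedlings (post). Finally, plants are scored 0-9 visually after 3 or 2 weeks, respectively.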

Lamium purpureum [2] = experiment: Herbicidal activity, postemergence test; conditions: post; sprayed onto seedling plants, 800 g of active material per hectare; evaluated 2 weeks after treatment
Procedure, shortened: as §1

Ipomoea hederacea [3] = experiment: Herbicidal activity, postemergence test; conditions: post; sprayed onto seedling plants, 800 g of active material per hectare; evaluated 2 weeks after treatment
Procedure, shortened: as §1

Matricaria inodora [4] = experiment: Herbicidal activity, postemergence test; conditions: post; sprayed onto seedling plants, 800 g of active material per hectare; evaluated 2 weeks after treatment
Procedure, shortened: as §1

Stellaria media [5] = experiment: Herbicidal activity, postemergence test; conditions: post; sprayed onto seedling plants, 800 g of active material per hectare; evaluated 2 weeks after treatment
Procedure, shortened: as §1

Triticum aestivum [6] = experiment: Herbicidal activity, postemergence test; conditions: post; sprayed onto seedling plants, 800 g of active material per hectare; evaluated 2 weeks after treatment
Procedure, shortened: as §1

Amaranthus retroflexus [7] = experiment: Herbicidal activity, postemergence test; conditions: post; sprayed onto seedling plants, 800 g of active material per hectare; evaluated 2 weeks after treatment
Procedure, shortened: as §1

Gossypium hirsutum [8] = experiment: Herbicidal activity, postemergence test; conditions: post; sprayed onto seedling plants, 800 g of active material per hectare; evaluated 2 weeks after treatment
Procedure, shortened: as §1

Alopecurus myosuroides [9] = experiment: Herbicidal activity, postemergence test; conditions: post; sprayed onto seedling plants, 800 g of active material per hectare; evaluated 2 weeks after treatment
Procedure, shortened: as §1

Veronica persica [10] = experiment: Herbicidal activity, postemergence test; conditions: post; sprayed onto seedling plants, 800 g of active material per hectare; evaluated 2 weeks after treatment
Procedure, shortened: as §1

Abutilon theophrasti [11] = experiment: Herbicidal activity, postemergence test; conditions: post; sprayed onto seedling plants, 800 g of active material per hectare; evaluated 2 weeks after treatment
Procedure, shortened: as §1

Hordeum vulgare [12] = experiment: Herbicidal activity, postemergence test; conditions: post; sprayed onto seedling plants, 800 g of active material per hectare; evaluated 2 weeks after treatment
Procedure, shortened: as §1

Ambrosia artemisifolia [13] = experiment: Herbicidal activity, postemergence test; conditions: post; sprayed onto seedling plants, 800 g of active material per hectare; evaluated 2 weeks after treatment
Procedure, shortened: as §1

Glycine max [14] = experiment: Herbicidal activity, postemergence test; conditions: post; sprayed onto seedling plants, 800 g of active material per hectare; evaluated 2 weeks after treatment
Procedure, shortened: as §1

Zea mays [15] = experiment: Herbicidal activity, postemergence test; conditions: post; sprayed onto seedling plants, 800 g of active material per hectare; evaluated 2 weeks after treatment
Procedure, shortened: as §1

Chenopodium album [16] = experiment: Herbicidal activity, postemergence test; conditions: post; sprayed onto seedling plants, 800 g of active material per hectare; evaluated 2 weeks after treatment
Procedure, shortened: as §1

Setaria viridis [17] = experiment: Herbicidal activity, postemergence test; conditions: post; sprayed onto seedling plants, 800 g of active material per hectare; evaluated 2 weeks after treatment
Procedure, shortened: as §1

Galium aparine [18] = experiment: Herbicidal activity, postemergence test; conditions: post; sprayed onto seedling plants, 800 g of active material per hectare; evaluated 2 weeks after treatment
Procedure, shortened: as §1

Papaver rhoeas [19] = experiment: Herbicidal activity, preemergence test; conditions: pre; sprayed onto soil, 800 g of active material per hectare; evaluated 3 weeks after treatment
Procedure, shortened: (§2)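 Scored visually on a 0-9 scale against untreated sown soil 3 weeks after application. Seeds freshly sown in prepared loam received a soil spray of 800 g/ha active material, applied as a water-diluted acetone solution with 0.4% TRITON X-155 at 900 L/ha.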

Lamium purpureum [20] = experiment: Herbicidal activity, preemergence test; conditions: pre; sprayed onto soil, 800 g of active material per hectare; evaluated 3 weeks after treatment
Procedure, shortened: as §2

Ipomoea hederacea [21] = experiment: Herbicidal activity, preemergence test; conditions: pre; sprayed onto soil, 800 g of active material per hectare; evaluated 3 weeks after treatment
Procedure, shortened: as §2

Matricaria inodora [22] = experiment: Herbicidal activity, preemergence test; conditions: pre; sprayed onto soil, 800 g of active material per hectare; evaluated 3 weeks after treatment
Procedure, shortened: as §2

Stellaria media [23] = experiment: Herbicidal activity, preemergence test; conditions: pre; sprayed onto soil, 800 g of active material per hectare; evaluated 3 weeks after treatment
Procedure, shortened: as §2

Triticum aestivum [24] = experiment: Herbicidal activity, preemergence test; conditions: pre; sprayed onto soil, 800 g of active material per hectare; evaluated 3 weeks after treatment
Procedure, shortened: as §2

Amaranthus retroflexus [25] = experiment: Herbicidal activity, preemergence test; conditions: pre; sprayed onto soil, 800 g of active material per hectare; evaluated 3 weeks after treatment
Procedure, shortened: as §2

Gossypium hirsutum [26] = experiment: Herbicidal activity, preemergence test; conditions: pre; sprayed onto soil, 800 g of active material per hectare; evaluated 3 weeks after treatment
Procedure, shortened: as §2

Alopecurus myosuroides [27] = experiment: Herbicidal activity, preemergence test; conditions: pre; sprayed onto soil, 800 g of active material per hectare; evaluated 3 weeks after treatment
Procedure, shortened: as §2

Veronica persica [28] = experiment: Herbicidal activity, preemergence test; conditions: pre; sprayed onto soil, 800 g of active material per hectare; evaluated 3 weeks after treatment
Procedure, shortened: as §2

Abutilon theophrasti [29] = experiment: Herbicidal activity, preemergence test; conditions: pre; sprayed onto soil, 800 g of active material per hectare; evaluated 3 weeks after treatment
Procedure, shortened: as §2

Hordeum vulgare [30] = experiment: Herbicidal activity, preemergence test; conditions: pre; sprayed onto soil, 800 g of active material per hectare; evaluated 3 weeks after treatment
Procedure, shortened: as §2

Ambrosia artemisifolia [31] = experiment: Herbicidal activity, preemergence test; conditions: pre; sprayed onto soil, 800 g of active material per hectare; evaluated 3 weeks after treatment
Procedure, shortened: as §2

Glycine max [32] = experiment: Herbicidal activity, preemergence test; conditions: pre; sprayed onto soil, 800 g of active material per hectare; evaluated 3 weeks after treatment
Procedure, shortened: as §2

Zea mays [33] = experiment: Herbicidal activity, preemergence test; conditions: pre; sprayed onto soil, 800 g of active material per hectare; evaluated 3 weeks after treatment
Procedure, shortened: as §2

Chenopodium album [34] = experiment: Herbicidal activity, preemergence test; conditions: pre; sprayed onto soil, 800 g of active material per hectare; evaluated 3 weeks after treatment
Procedure, shortened: as §2

Setaria viridis [35] = experiment: Herbicidal activity, preemergence test; conditions: pre; sprayed onto soil, 800 g of active material per hectare; evaluated 3 weeks after treatment
Procedure, shortened: as §2

Galium aparine [36] = experiment: Herbicidal activity, preemergence test; conditions: pre; sprayed onto soil, 800 g of active material per hectare; evaluated 3 weeks after treatment
Procedure, shortened: as §2

| SMILES | PAPRH control rating (0-9) (Papaver rhoeas [1]) | LAMPU control rating (0-9) (Lamium purpureum [2]) | IPOHE control rating (0-9) (Ipomoea hederacea [3]) | MATIN control rating (0-9) (Matricaria inodora [4]) | STEME control rating (0-9) (Stellaria media [5]) | TRZAW control rating (0-9) (Triticum aestivum [6]) | AMARE control rating (0-9) (Amaranthus retroflexus [7]) | GOSHI control rating (0-9) (Gossypium hirsutum [8]) | ALOMY control rating (0-9) (Alopecurus myosuroides [9]) | VERPE control rating (0-9) (Veronica persica [10]) | ABUTH control rating (0-9) (Abutilon theophrasti [11]) | HORVW control rating (0-9) (Hordeum vulgare [12]) | AMBEL control rating (0-9) (Ambrosia artemisifolia [13]) | GLXMA control rating (0-9) (Glycine max [14]) | ZEAMX control rating (0-9) (Zea mays [15]) | CHEAL control rating (0-9) (Chenopodium album [16]) | SETVI control rating (0-9) (Setaria viridis [17]) | GALAP control rating (0-9) (Galium aparine [18]) | PAPRH control rating (0-9) (Papaver rhoeas [19]) | LAMPU control rating (0-9) (Lamium purpureum [20]) | also measured |
| --- | --- | --- | --- | --- | --- | --- | --- | --- | --- | --- | --- | --- | --- | --- | --- | --- | --- | --- | --- | --- | --- |
| C[C@H](NC(=O)c1nnc(-c2ccccc2Cl)o1)c1ccccc1 [Example 21] | 5 (definite injury) | 6 (herbicidal effect) | 4 (injury) | 4 (injury) | 9 (complete kill) | 2 (slight effect) | 8 (approaching complete kill) | 8 (approaching complete kill) | 0 (no effect) | 7 (good herbicidal effect) | 5 (definite injury) | 1 (trace effect) | 6 (herbicidal effect) | 2 (slight effect) | 2 (slight effect) | 7 (good herbicidal effect) | 6 (herbicidal effect) | 4 (injury) | 9 (complete kill) | 5 (definite injury) | IPOHE control rating (0-9) (Ipomoea hederacea [21]): 1 (trace effect); MATIN control rating (0-9) (Matricaria inodora [22]): 6 (herbicidal effect); STEME control rating (0-9) (Stellaria media [23]): 5 (definite injury); TRZAW control rating (0-9) (Triticum aestivum [24]): 0 (no effect); AMARE control rating (0-9) (Amaranthus retroflexus [25]): 3 (moderate effect); GOSHI control rating (0-9) (Gossypium hirsutum [26]): 0 (no effect); ALOMY control rating (0-9) (Alopecurus myosuroides [27]): 0 (no effect); VERPE control rating (0-9) (Veronica persica [28]): 9 (complete kill); ABUTH control rating (0-9) (Abutilon theophrasti [29]): 0 (no effect); HORVW control rating (0-9) (Hordeum vulgare [30]): 0 (no effect); AMBEL control rating (0-9) (Ambrosia artemisifolia [31]): 0 (no effect); GLXMA control rating (0-9) (Glycine max [32]): 0 (no effect); ZEAMX control rating (0-9) (Zea mays [33]): 0 (no effect); CHEAL control rating (0-9) (Chenopodium album [34]): 2 (slight effect); SETVI control rating (0-9) (Setaria viridis [35]): 1 (trace effect); GALAP control rating (0-9) (Galium aparine [36]): 0 (no effect) |
| C[C@H](NC(=O)c1nnc(-c2ccc(C(F)(F)F)cc2)o1)c1ccccc1 [Example 23] | 8 (approaching complete kill) | 9 (complete kill) | 8 (approaching complete kill) | 8 (approaching complete kill) | 9 (complete kill) | 3 (moderate effect) | 9 (complete kill) | 9 (complete kill) | 3 (moderate effect) | 9 (complete kill) | 9 (complete kill) | 4 (injury) | 8 (approaching complete kill) | 5 (definite injury) | 3 (moderate effect) | 9 (complete kill) | 9 (complete kill) | 7 (good herbicidal effect) | 9 (complete kill) | 7 (good herbicidal effect) | IPOHE control rating (0-9) (Ipomoea hederacea [21]): 0 (no effect); MATIN control rating (0-9) (Matricaria inodora [22]): 8 (approaching complete kill); STEME control rating (0-9) (Stellaria media [23]): 8 (approaching complete kill); TRZAW control rating (0-9) (Triticum aestivum [24]): 0 (no effect); AMARE control rating (0-9) (Amaranthus retroflexus [25]): 9 (complete kill); GOSHI control rating (0-9) (Gossypium hirsutum [26]): 0 (no effect); ALOMY control rating (0-9) (Alopecurus myosuroides [27]): 4 (injury); VERPE control rating (0-9) (Veronica persica [28]): 9 (complete kill); ABUTH control rating (0-9) (Abutilon theophrasti [29]): 5 (definite injury); HORVW control rating (0-9) (Hordeum vulgare [30]): 0 (no effect); AMBEL control rating (0-9) (Ambrosia artemisifolia [31]): 0 (no effect); GLXMA control rating (0-9) (Glycine max [32]): 0 (no effect); ZEAMX control rating (0-9) (Zea mays [33]): 1 (trace effect); CHEAL control rating (0-9) (Chenopodium album [34]): 8 (approaching complete kill); SETVI control rating (0-9) (Setaria viridis [35]): 8 (approaching complete kill); GALAP control rating (0-9) (Galium aparine [36]): 0 (no effect) |
